The text below walks through data of patent publication US7122651B1, “Nucleic acid molecules encoding opioid growth factor receptors” (priority 1998, dated 2006).

In data set [1] the target is T1, nuclear homogenates of human pancreatic tumor cells (PANC-1) (Homo sapiens, UniProt Q9NZT2).
T1 construct: host or cells: PANC-1; nuclear (P1) homogenates, and P2, P3 and S3 fractions in the fractionation study
T1 sequence (Q9NZT2 1-677): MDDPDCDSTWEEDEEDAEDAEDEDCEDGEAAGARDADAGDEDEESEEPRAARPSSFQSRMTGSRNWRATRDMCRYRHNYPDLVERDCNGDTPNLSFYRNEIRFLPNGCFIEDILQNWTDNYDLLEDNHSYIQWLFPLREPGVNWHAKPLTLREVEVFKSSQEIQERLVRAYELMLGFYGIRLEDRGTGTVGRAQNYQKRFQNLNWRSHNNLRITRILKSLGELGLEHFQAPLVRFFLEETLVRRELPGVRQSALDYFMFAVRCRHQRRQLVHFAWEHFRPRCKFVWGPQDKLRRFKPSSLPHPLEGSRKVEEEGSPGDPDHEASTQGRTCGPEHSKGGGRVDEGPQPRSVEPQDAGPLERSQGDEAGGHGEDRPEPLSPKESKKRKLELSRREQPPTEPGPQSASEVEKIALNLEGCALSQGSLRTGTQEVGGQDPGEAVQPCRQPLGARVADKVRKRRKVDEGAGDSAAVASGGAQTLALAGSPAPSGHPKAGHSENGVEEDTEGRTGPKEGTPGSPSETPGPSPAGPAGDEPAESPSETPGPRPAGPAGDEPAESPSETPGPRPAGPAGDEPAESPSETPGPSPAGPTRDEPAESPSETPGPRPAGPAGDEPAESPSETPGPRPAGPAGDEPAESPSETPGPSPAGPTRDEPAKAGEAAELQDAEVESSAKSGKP
The data set can be described thus: Competition for binding of [^3H]-[Met^5]-enkephalin in PANC-1 nuclear homogenates. The note with it: for competition for [^3H][Met^5]-enkephalin binding: 1 or 2 nM radioligand. The protocol:
Each concentration was run in triplicate and every compound was tested twice.
(§1) Analysis and statistics. Receptor binding data were analyzed with either the Lundon I (Saturation Isotherm Binding Analysis) computer program (Lundon Software, Cleveland, Ohio) or GraphPad Prism software. Both programs utilize nonlinear least-squares regression. Binding isotherms and Scatchard plots were computed directly by the programs. […] Comparisons of Bmax and Kd values were made using analysis of variance and posthoc Newman-Keuls tests.
Competition experiments using 1 or 2 nM [^3H]

In data set [2] the target is T2, PANC-1 nuclear (P1) homogenates (Homo sapiens, UniProt Q9NZT2).
T2 construct: host or cells: PANC-1; nuclear (P1) homogenates, and P2, P3 and S3 fractions in the fractionation study
T2 sequence (Q9NZT2 1-677): T1 sequence (Q9NZT2 1-677)
The data set can be described thus: Binding of [^3H]-[Met^5]-enkephalin to PANC-1 nuclear homogenates (saturation and characterization). The note with it: for Binding, of the optimal binding at 22° C.: 2 nM ligand. As for the experimental part:
(§2) Cell culture. PANC-1, Mia PaCa-2, BxPC-3, and Capan-1 cell lines were obtained from the American Type Culture Collection (Manassas, Va.). […] Panc-1 cells between passages 62–74 were used for the characterization studies.
(§3) Preparation of protein fractions. Cell cultures were harvested by scraping of the flasks, and cells were pelleted by centrifugation. The washed pellet was homogenized (Polytron, setting 5, 2×10 sec) in a 1:20 (wt/vol) solution of cold 50 mM Tris-HCl with 0.1 mg/ml bacitracin, 1 mg/ml leupeptin, 6 nM thiorphan, 1 mM EGTA, and 3.5 mM PMSF (pH 7.4) at 4° C.; this buffer is termed Tris/all.
(§4) Receptor binding assays. Homogenates of nuclear protein were diluted with Tris/all to the appropriate protein concentration and incubated at room temperature (22° C.) for 20 min to remove endogenous peptides. Aliquots of protein were resuspended to 0.95 ml and incubated with agitation with radioactive ligand. […] The final volume of the incubation mixture was 1 ml. Isotope incubation was terminated by rapid filtration through Whatman GF-B filters under vacuum pressure with a Brandel Cell Harvester. Filters were rinsed with ice-cold Tris/all buffer, dried at 60° C. for 1 hr and counted by liquid scintillation spectrometry (Beckman LS-2800). […] Duplicate tubes of homogenates were assayed for each concentration utilized. Protein concentrations were determined by the BioRad method with g-globulin as the standard.
as §1

In data set [3] the target is rat OGFr 12-GST fusion protein (cDNA clone #12). Kind of data set: Saturation binding of [^3H]-[Met^5]-enkephalin to purified rat OGFr GST fusion protein. Particulars: mean±SE, 6 assays, 22° C., 30 min, read-out: binding affinity (Kd). The protocol:
Fusion proteins (80–120 ng/tube) were incubated for 30 min with shaking at 22° C. […] Binding was terminated by filtering homogenates through Whatman GF/B filters. Saturation isotherms were plotted using GraphPad Prism software (GraphPad Software Inc., San Diego, Calif.).

Data set [4] concerns the target nuclear-enriched fraction of human placenta. The data set can be described thus: Binding of radiolabeled [Met^5]-enkephalin to human placenta. The note with it: one-site model, read-out: binding affinity (Kd). The text has this: A one-site model of binding was noted.
In data set [5] the target is PANC-1 subcellular fractions (P1, P2, P3, S3) (Homo sapiens, UniProt Q9NZT2). The protocol:
For subcellular fractionation studies, the supernatant of P1 was centrifuged at 39,000× g for 30 min to obtain a plasma membrane pellet (P2). The P2 supernatant was centrifuged overnight (100,000× g), resulting in a microsomal pellet (P3) and soluble supernatant (S3). All fractions were inspected for purity by phase-contrast microscopy.
as §4
Sucrose gradient centrifugation was performed to separate the nuclear (P1), membrane (P2), microsomal (P3), and soluble (S3) fractions (Table II).

In another data set the target is BxPC-3 nuclear fraction (Homo sapiens, UniProt Q9NZT2). The note with it: BxPC-3, log phase. As for the experimental part:
as §2, §3, §4

A further data set addresses Capan-1 nuclear fraction (Homo sapiens, UniProt Q9NZT2). Particulars: Capan-1, log phase. As for the experimental part: as §2, §3, §4
Data set [6] concerns the target MIA PaCA-2 nuclear fraction (Homo sapiens, UniProt Q9NZT2). The note with it: MIA PaCA-2, log phase. As for the experimental part:
as §2, §3, §4

The target in data set [7] is Xenografts of Capan-1 growing in nude mice (Homo sapiens, UniProt Q9NZT2). The note with it: Capan-1 xenograft, harvested 40 days after inoculation. As for the experimental part:
as §4

Data set [8] addresses human pancreatic cancer tissue (Homo sapiens, UniProt Q9NZT2). The protocol:
as §4
Receptor binding assays were performed as stated above.

Data set [9] concerns the target SCCHN enriched nuclear preparations (Homo sapiens, UniProt Q9NZT2). An excerpt:
(§5) Human tissue samples were representative of a variety of squamous cell carcinomas, including specimens from the oral cavity-larynx, and regional metastases. Normal mucosal specimens were obtained during uvu-lopalatopharyngoplasty.

For data set [10], the target named is normal mucosa enriched nuclear preparations (Homo sapiens, UniProt Q9NZT2). Particulars: normal epithelium.
Text: as §5

The target of another data set is normal human pancreas (Homo sapiens, UniProt Q9NZT2). Particulars: 3 normal specimens.
Data set [11] relates to IEC-6 rat small intestine epithelial cell line. The data set can be described thus: Cell number in IEC-6 cultures (trypan blue, hemacytometer). Particulars: 10^−6 M, 48 hr of exposure, IEC-6 cells. The data set is classed as cell-based. The protocol: FIG. 6 depicts histogram of cell number in cultures of IEC-6 rat intestinal epithelial cells treated for 48 hr with either sterile water (CO), 10^−6 M NTX, 10^−6 M 23-mer S-ODN (antisense), or scrambled oligoprobe (scrambled). Cells (5×10^3) were plated, and compounds and fresh media were added 24 hr and 48 hr later. After 72 hr in culture, cells were trypsinized, stained with trypan blue, and counted with a hemacytometer.
The IEC-6 rat small intestine epithelial cell line (American Type Tissue Culture Collection, Manassas, Va.) were grown in Dulbecco's medium supplemented with 10% fetal calf serum. For experiments, 5×10^3 cells/well in a 24-well plate were seeded and, 24 hr later, 10^−6 M concentrations of the antisense or the scrambled S-ODN were added. Some wells were exposed to 10^−6 NTX or an equivalent volume of sterile water. Media, S-ODNs, or drugs were changed daily. After 72 hr in culture, cells were trypsinized, stained with trypan blue, and counted with a hemacytometer; 3 wells/treatment group were assessed. The data were evaluated with ANOVA, and subsequent comparisons were made with the Newman-Keuls tests.

In data set [12] the test system is SK-N-AS human neuroblastoma cell line. Kind of data set: Cell number in SK-N-AS cultures (trypan blue, hemacytometer). The data set is classed as cell-based. The note with it: 10^−6 M, SK-N-AS cells. The protocol: FIG. 10 depicts histogram of cell number in cultures of SK-N-AS human neuroblastoma cells treated for 48 hr with either sterile water (CO), 10^−6 M NTX, 10^−6 M S-ODN, or scrambled oligonucleotide. Cells (6×10^3) were plated and compounds and fresh media added 24 hr and 48 hr later. After 72 hr in culture, cells were trypsinized, stained with trypan blue, and counted with a hemacytometer.
To study the function of the isolated cDNA with respect to regulation of cell growth, a 23-mer antisense S-ODN (nuclease-resistant phosphorothioate; Oligo, Etc., Bethel, Me.) targeted against a sequence containing the translation initiation site of the OGF binding protein was designed: 5′-[…]-3′ (antisense, SEQ ID NO: 17). A scrambled (control) S-ODN was also designed: 5′-[…]-3′ (SEQ ID NO: 18).
The SK-N-AS human neuroblastoma cell line (American Type Tissue Culture Collection, Manassas, Va.) was grown in Dulbecco's medium supplemented with 10% fetal calf serum. For experimentation, 6×10^3 cells/well in a 24-well plate were seeded and, 24 hr later, 10^−6 M concentrations of the antisense or the scrambled S-ODN was added. […] After 72 hr in culture, cells were trypsinized, stained with trypan blue, and counted with a hemacytometer. Data from the antisense experiments were evaluated with ANOVA, and subsequent comparisons made with the Newman-Keuls tests.

The mark [13] stands for this setting: optimal conditions, P1 fraction.

Sequence of rat OGFr 12-GST fusion protein (cDNA clone #12) (as listed by the source): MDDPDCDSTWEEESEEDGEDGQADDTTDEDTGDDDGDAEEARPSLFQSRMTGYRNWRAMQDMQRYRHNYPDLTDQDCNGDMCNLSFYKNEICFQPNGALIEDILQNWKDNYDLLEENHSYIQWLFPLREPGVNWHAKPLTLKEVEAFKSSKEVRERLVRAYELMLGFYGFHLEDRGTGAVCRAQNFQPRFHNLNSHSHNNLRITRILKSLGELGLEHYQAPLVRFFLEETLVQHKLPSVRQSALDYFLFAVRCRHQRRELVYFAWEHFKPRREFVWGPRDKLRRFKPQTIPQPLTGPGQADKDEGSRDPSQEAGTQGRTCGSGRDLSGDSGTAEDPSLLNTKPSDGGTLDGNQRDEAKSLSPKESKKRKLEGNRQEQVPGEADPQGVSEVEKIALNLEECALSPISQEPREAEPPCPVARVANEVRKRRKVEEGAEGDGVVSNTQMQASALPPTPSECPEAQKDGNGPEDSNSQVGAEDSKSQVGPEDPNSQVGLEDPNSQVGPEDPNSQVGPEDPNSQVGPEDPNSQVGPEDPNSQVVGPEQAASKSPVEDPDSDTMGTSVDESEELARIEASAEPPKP
Method for normal human pancreas: Normal tissues (as determined from histological assessment) were obtained from two females and a person. […] Samples were collected and frozen in liquid nitrogen within 1 hr of surgery. Receptor binding assays were performed as stated above.

For the compound `CC[C@]12CCN(CC3CC3)[C@H](C(=O)c3ccc(O)cc31)[C@@H]2C` [EKC, ethylketocyclazocine], in data set [1], the “competition for [^3H][Met^5]-enkephalin binding” value (“competition” below) is “little or no competition”.

On to `Nc1nc2c(ncn2[C@@H]2O[C@H](COP(=O)(O)OP(=O)(O)NP(=O)(O)O)[C@@H](O)[C@H]2O)c(=O)[nH]1` [GppNHp, guanylylimidodiphosphate], for which the “effect on binding of [^3H]-[Met^5]-enkephalin” value in data set [2] (50, 100, or 200 μM) was “not markedly altered”.

For the compound DPDPE [[D-Pen^2, Pen^5]-enkephalin], the “competition” value in [1] is on record as “little or no competition”.

What is called Kd is the concentration at which binding is half-saturated. Turning to [^3H]-[Met^5]-enkephalin, the dissociation constant (Kd) in [3] was found to be 2.8 ± 1.1 nM; in [4], 12.3 ± 3.9 nM. In addition, the “time to reach binding equilibrium” value in data set [2] (22° C.) lay within 60 to 75 min. In addition, the Bmax in [2] (PANC-1, Table IV, at least 3 independent assays) amounted to 28.9 ± 6.2 fmol/mg; in data set [2] (PANC-1 Confluent, 5 days in culture), 7.8 ± 0.0 fmol/mg protein; in [2] (PANC-1 Log phase, 3 days in culture) it was 20.7 ± 1.2 fmol/mg protein; in data set [2] (PANC-1 Post-confluent, 7–8 days in culture) it was 35.6 ± 0.3 fmol/mg protein; in data set [5] (P1 fraction, Nuclear), 21.8±4.8 fmol/mg protein; at BxPC-3 nuclear fraction it was 25.5 ± 9.7 fmol/mg. The Bmax is on record as 22.7 ± 9.5 fmol/mg on Capan-1 nuclear fraction; 11.9 ± 1.5 fmol/mg in data set [6]; 4.2±1.1 fmol/mg protein in [7]; 6.6±1.2 fmol/mg protein in data set [8] (specimens from 3 patients); 46.7±27.8 fmol/mg protein on normal human pancreas. Also, the “effect of length of time in culture on affinity” value in data set [2] (PANC-1 log phase, confluent, post-confluent) is reported as “no effect”. Besides, the “reduction of binding capacity in contrast to post-confluent cells” value stood at 78% in data set [2] (confluent cultures) and 42% in data set [2] (log-phase cultures). Also, the “Binding, of the optimal binding at 22° C.” value in [2] (incubation at 0° C.) was 12%; in [2] (incubation at 37° C.), 21%. In addition, the “Nonspecific binding, of the total binding” value in [2] (setting [13]) is roughly 52%. Besides, the “maximal binding capacity (Bmax)” value in [2] (setting [13]) is 36.4±4.1 fmol/mg protein. In data set [5] (fractions enriched in P2, P3, or S3), the “specific and saturable binding” value was “No specific and saturable binding”. In addition, the binding recorded entry in [8] (3 further specimens) is “non-specific and non-saturable binding”. For the same compound, the “Binding capacity (Bmax)” value is given as 13.6±1.9 fmol/mg protein in data set [9] (neoplastic specimens) and 80.8±32.8 fmol/mg protein in data set [10]. In data set [9] (p<0.01), the “Bmax of neoplastic specimens less than normal epithelium” value was found to be 6 fold.

As for “Dynorphin A1-8 (YGGFLRRI) [κ receptor ligand]”, the “competition” value in [1] is “little or no competition”.

As for `O=C1CC[C@@]2(O)[C@H]3Cc4ccc(O)c5c4[C@@]2(CCN3CC2CC2)[C@H]1O5` [NTX, naltrexone], in [11], the “elevation of cell number from control cultures” value (from here on “elevation of cell number”) was determined as 223%. The “growth relative to control cultures” value in data set [12] (48 hr) was “increased cell growth from control values”.

Consider “5′-GACTCAGGGACTTAGCTTCATCC-3′ (DNA, all phosphorothioate, methylation of C not given here) [antisense S-ODN (SEQ ID NO: 15)]”, for which the “elevation of cell number” value in data set [11] is listed as 294%.

Take β-endorphin: the IC50/Kd in [1] (competition with [^3H]-[Met^5]-enkephalin, at least 2 independent assays) was >10^−4.

“5′-GGTCGTCCATGCTCGGCTAGAAT-3′ (DNA, all phosphorothioate, methylation of C not given here) [antisense S-ODN (SEQ ID NO: 17)]”: the “elevation of cell number” value in data set [12] (48 hr of exposure) was found to be 60%.

For the compound `C[C@@H](NC(=O)[C@@H](N)Cc1ccc(O)cc1)C(=O)NCC(=O)N(C)[C@@H](Cc1ccccc1)C(=O)NCCO` [DAMGO, [D-Ala^2, N-Me-Phe^4, Gly^5-ol]-enkephalin], in [1], the “competition” value is recorded as “little or no competition”.

Turning to [Met^5]-enkephalin, the “ability to displace [^3H][Met^5]enkephalin relative to the next ranking compound” value in [1] stood at 100 fold.
